The NOAEL is the highest dose or exposure tested at which no adverse effect was seen.

One data set deals with Rattus norvegicus. The settings on record: for NOAEL: inhalation.
The next data set relates to Macromiidae. The settings on record: acute; duration: 72 hours; biomass.
The test system of a further data set is Anas platyrhynchos. The settings on record: short-term; oral; feed; mortality.
The next data set relates to Coturnix japonica. The settings on record: reproduction developmental.
The next data set concerns Colinus virginianus. The settings on record: acute, oral, mortality.
The next data set relates to Leuciscus idus. To be noted: acute; duration: 96 hours; mortality.
The mark [1] stands for this setting: chronic, duration: 2 years, no effects.
[2] abbreviates: reproduction developmental, mortality.
The mark [3] stands for this setting: subchronic, duration: 90 days, no effects.

Consider `P` [Phosphine], for which the figures for the NOAEL in the data set on Rattus norvegicus (setting [1]), in the data set on Rattus norvegicus (setting [2]) and with Rattus norvegicus (setting [3]) were 1.1 mg/kg-day, 1.9 mg/kg-day and 1.1 mg/kg-day, respectively.

`[PH]=[Zn].[PH]=[Zn].[Zn]` [Zinc phosphide (Zn3P2)]: in the data set on Macromiidae, the NOEC was found to be 0.00323 mg/L. In addition, the LC50 with Anas platyrhynchos is 2880 mg/kg; in the data set on Colinus virginianus (diet), 468 mg/kg; in the data set with Leuciscus idus, greater than 21.7 mg/L. Moreover, the LD50 in the data set on Rattus norvegicus (acute, oral, mortality) turned out to be 37 mg/kg-day; in the data set with Colinus virginianus it was 12.9 mg/kg-day. Moreover, the no observed adverse effect level (NOAEL) in the data set on Rattus norvegicus (setting [1]) was 1.1 mg/kg-day; in the data set with Rattus norvegicus (setting [2]), 1.9 mg/kg-day; in the data set with Rattus norvegicus (setting [3]), 1.1 mg/kg-day. Also, in the data set with Rattus norvegicus (subchronic, duration: 90 days, oral), the LOEC came out at 3.5 mg/kg-day. Also, the NOEL worked out at 0.99 mg/kg-day in the data set with Coturnix japonica (F) and 1.2 mg/kg-day in the data set with Coturnix japonica (M).

The values are drawn from EPA's ToxValDB 9.5 (doi:10.2903/j.efsa.2010.1671).
